Each structure is given as a SMILES string.

One assay concerns the target T1, 5-HT2A receptor (Homo sapiens, UniProt P28223).
T1 construct: expressed in transfected cells
In words: [3H]-DOB binding assay (method b), affinity to the 5-HT2A receptor. The note with it: Ki from IC50 in nM; for Ki: read-out: Pki (Pki=-log10 Ki), 5-HT2A, Method b (converted). As to the method: (§1) The binding of compounds of formula I in accordance with the invention to selected serotonin […] was determined in vitro by standard methods. The preparations were investigated in accordance with the tests given hereinafter:
b) Affinity to the 5-HT2A receptor in accordance with the [3H]- DOB binding assay according to the method of T. Branchek et. al., Molecular Pharmacology 38, 604-609 (1990).
(§2) The Pki values (Pki=-log10 Ki) of the test substances are given. The Ki value is defined by the following formula: [formula] with the IC50 values being those concentrations of test compounds in nM at which 50% of the receptor-bonded ligands are displaced. [L] is the ligand concentration and the KD value is the dissocation constant of the ligand.

Assay [1] concerns the target T2, 5-HT2C receptor (Rattus norvegicus, UniProt P08909).
T2 sequence (P08909 33-460): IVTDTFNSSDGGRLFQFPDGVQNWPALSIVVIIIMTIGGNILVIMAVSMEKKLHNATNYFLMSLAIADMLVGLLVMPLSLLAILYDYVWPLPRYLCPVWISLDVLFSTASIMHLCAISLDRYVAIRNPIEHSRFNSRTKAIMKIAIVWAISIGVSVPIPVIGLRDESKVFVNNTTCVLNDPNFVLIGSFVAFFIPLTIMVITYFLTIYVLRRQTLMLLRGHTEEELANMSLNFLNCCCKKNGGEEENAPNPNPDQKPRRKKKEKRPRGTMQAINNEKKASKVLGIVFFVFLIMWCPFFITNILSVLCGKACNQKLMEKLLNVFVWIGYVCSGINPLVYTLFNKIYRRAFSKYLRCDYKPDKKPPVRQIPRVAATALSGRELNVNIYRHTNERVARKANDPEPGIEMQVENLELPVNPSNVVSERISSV
The assay is described as follows: [3H]-5-HT binding assay (method a), affinity to the 5-HT2C receptor. The note with it: Ki from IC50 in nM; for Ki: read-out: Pki (Pki=-log10 Ki), 5-HT2C, Method a (converted). Set-up: expressed in transfected cells. Here is the method: as §1
a) Affinity to the 5-HT2C receptor in accordance with the [3H]-5-HT binding assay according to the method of S.J. Peroutka et al., Brain Research 584, 191-196 (1992).
as §2

Assay [2] addresses T2, 5-HT2C receptor. The assay is described as follows: Penile erection (rats). The assay is classed as in vivo. To be noted: po, 0.75 h, p.o., erections within 45 minutes following administration, read-out: ID50 (mg/kg) (p.o.), penile erection. Set-up: following the administration of the test substance to the animals; from tissue; host or cells: whole living rat (in vivo). Here is the method:
It has been shown that penile erection is dependent on the stimulation of 5HT2C receptors (see Berendsen & Broekkamp, Eur. J. Pharm., 135, 179-184 (1987).
The number of penile erections was determined within 45 minutes following the administration of the test substance to the animals. The ED50 is the dosage which causes 50% of these erections.

T1 sequence (P28223 whole entry): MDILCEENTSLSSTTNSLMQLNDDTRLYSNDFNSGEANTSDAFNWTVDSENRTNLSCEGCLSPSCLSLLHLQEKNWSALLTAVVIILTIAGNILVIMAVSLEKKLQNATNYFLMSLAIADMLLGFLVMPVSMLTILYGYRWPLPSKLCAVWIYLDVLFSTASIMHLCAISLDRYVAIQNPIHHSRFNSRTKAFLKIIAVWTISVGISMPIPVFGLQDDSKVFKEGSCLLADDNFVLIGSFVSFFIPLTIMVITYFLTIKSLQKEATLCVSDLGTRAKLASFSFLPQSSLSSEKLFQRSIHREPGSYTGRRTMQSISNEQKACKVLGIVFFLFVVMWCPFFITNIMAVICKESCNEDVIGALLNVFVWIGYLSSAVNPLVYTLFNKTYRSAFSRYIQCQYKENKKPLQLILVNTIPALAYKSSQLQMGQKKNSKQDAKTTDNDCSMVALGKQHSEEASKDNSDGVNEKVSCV

Take `CC(C)Oc1cccc2cc(C(=N)N)oc12` [Oi-Pr H H H H]: the Ki at 5-HT2A receptor is 1000 nM; on 5-HT2C receptor [1], 200 nM.
For `N=C(N)c1cc2cc(F)ccc2o1` [Example 5, 5-Fluorobenzofuran-2-carboxamidine] the same measures were 2000 nM and 158 nM.
As for `Cc1ccc2cc(C(=N)N)oc2c1` [H Me H H H], the inhibitory constant (Ki) on 5-HT2A receptor is over 10000 nM; at 5-HT2C receptor [1], 1000 nM.
Take `N=C(N)c1cc2c(F)cccc2o1` [Example 9, 4-Fluoro-benzofuran-2-carboxamidine]: the inhibition constant (Ki) at 5-HT2A receptor was 2000 nM; on 5-HT2C receptor [1], 39.8 nM. Moreover, the ED50 on 5-HT2C receptor [2] stood at 2.9 mg/kg.
Take `N=C(N)c1cc2cc(Br)cc(Br)c2o1` [Br H Br H H]: the figures for the Ki on 5-HT2A receptor and at 5-HT2C receptor [1] were 316 nM and 2000 nM, respectively.
For `N=C(N)c1cc2cccc(OCc3ccccc3)c2o1` [OBn H H H H], the inhibition constant (Ki) on 5-HT2A receptor was 126 nM; on 5-HT2C receptor [1], 63.1 nM.
Regarding `CCOc1cccc2cc(C(N)=NO)oc12` [Example 14, 7-Ethoxybenzofuran-2-carboxamidoxime], the inhibitory constant (Ki) on 5-HT2A receptor was over 10000 nM; on 5-HT2C receptor [1], 5500 nM.
Turning to `CCCc1c(F)ccc2cc(C(=N)N)oc12` [Example 8, 6-Fluoro-7-propylbenzofuran-2-carboxamidine], the Ki at 5-HT2A receptor is 158 nM; at 5-HT2C receptor [1], 20 nM.
The corresponding values for `N=C(N)c1cc2cc(Cl)cc(Br)c2o1` [Br H Cl H H] are 316 nM and 5010 nM.
For `N=C(N)c1cc2ccc(Cl)cc2o1` [H Cl H H H] the same measures were 5010 nM and 1260 nM.
As for `N=C(N)c1cc2cccc(Cl)c2o1` [Cl H H H H], the inhibitory constant (Ki) on 5-HT2A receptor was 3980 nM; on 5-HT2C receptor [1], 158 nM.
For `N=C(N)c1cc2ccc3c(c2o1)OCC3` [--O--CH2 --CH2 -- H H H] the same measures were 3160 nM and 398 nM.
On to `CSCc1cccc2cc(C(=N)N)oc12` [CH2 --S-Me H H H H], for which the Ki is 1000 nM on 5-HT2A receptor and 251 nM at 5-HT2C receptor [1].
Take `CC(C)CCOc1cccc2cc(C(=N)N)oc12` [Oi-Pent H H H H]: the inhibition constant (Ki) on 5-HT2A receptor was 158 nM; at 5-HT2C receptor [1] it was 501 nM.
The corresponding values for `COc1ccc2cc(C(=N)N)oc2c1` [H OMe H H H] are 6310 nM and 631 nM.
For `N=C(N)c1cc2cccc(OC3CCCCC3)c2o1` [O-Cyclo-hex H H H H] the same measures were 158 nM and 631 nM.
For `CCOCc1cccc2cc(C(=N)N)oc12` [Example 7, 7-Ethoxymethylbenzofuran-2-carboxamidine] the same measures were 2000 nM and 100 nM.
As for `N=C(N)c1cc2cccc(Br)c2o1` [Br H H H H], the inhibition constant (Ki) at 5-HT2A receptor was 1580 nM; on 5-HT2C receptor [1], 126 nM.
For `N=C(N)c1cc2ccccc2o1` [H H H H H, benzofuran-2-carboxamidine], the Ki on 5-HT2A receptor is 5010 nM; at 5-HT2C receptor [1], 79.4 nM. On 5-HT2C receptor [2], the ED50 came out at 5 mg/kg.
In the case of `N=C(N)c1cc2c(F)cc(F)cc2o1` [Example 10, 4.6-Difluoro-benzofuran-2-carboxamidine], the Ki on 5-HT2A receptor is 631 nM; at 5-HT2C receptor [1], 7.94 nM.
As for `NC(=NO)c1cc2ccccc2o1` [H H H H CH, benzofuran-2-carboxamidoxime], the Ki at 5-HT2A receptor and at 5-HT2C receptor [1] was over 10000 nM in each case. Also, the ED50 on 5-HT2C receptor [2] was 2 mg/kg.
For `COc1cc(-c2ccccc2)cc2cc(C(=N)N)oc12` [OMe H Ph H H], the inhibition constant Ki on 5-HT2A receptor was 158 nM; at 5-HT2C receptor [1], 1580 nM.
For `N=C(N)c1cc2c(F)ccc(Br)c2o1` [Example 12, 7-Bromo-4-fluorobenzofuran-2-carboxamidine] the same measures were over 10000 nM and over 10000 nM.
For `CC(C)c1cccc2cc(C(=N)N)oc12` [i-Prop H H H H] the same measures were 794 nM and 63.1 nM.
Turning to `N=C(N)c1cc2cc(F)c(F)cc2o1` [Example 1, 5,6-Difluorobenzofuran-2-carboxamidine], the Ki at 5-HT2A receptor was 2000 nM; at 5-HT2C receptor [1], 158 nM. Moreover, the ED50 at 5-HT2C receptor [2] stood at 6 mg/kg.
Regarding `N=C(N)c1cc2cc(Cl)ccc2o1` [H H Cl H H], the inhibition constant (Ki) on 5-HT2A receptor and on 5-HT2C receptor [1] was 1580 nM in each case.
For `NC(=NO)c1cc2c(F)cccc2o1` [Example 18, 4-Fluorobenzofuran-2-carboxamidoxime], the figures for the Ki on 5-HT2A receptor and on 5-HT2C receptor [1] were 2510 nM and 79.4 nM, respectively.
For `NC(=NO)c1cc2cc(F)ccc2o1` [Example 15, 5-Fluorobenzofuran-2-carboxamidoxime], the Ki was over 10000 nM at 5-HT2A receptor and 4270 nM on 5-HT2C receptor [1].
The corresponding values for `NC(=NO)c1cc2cc(F)c(F)cc2o1` [Example 13, 5,6-Difluorobenzofuran-2-carboxamidoxime] are over 10000 nM and over 10000 nM.
In the case of `CCOCc1cccc2cc(C(N)=NO)oc12` [Example 17, 7-Ethoxymethylbenzofuran-2-carboxamidoxime], the inhibition constant Ki at 5-HT2A receptor and at 5-HT2C receptor [1] was over 10000 nM each time.
As to `CC(C)OCc1cccc2cc(C(=N)N)oc12` [CH2 --O-iPr H H H H], the inhibitory constant (Ki) at 5-HT2A receptor was 2000 nM; on 5-HT2C receptor [1], 398 nM. Besides, on 5-HT2C receptor [2], the ED50 is 5.1 mg/kg.
Consider `CCCOc1cccc2cc(C(=N)N)oc12` [OPr H H H H], for which the results for the Ki at 5-HT2A receptor and at 5-HT2C receptor [1] were over 10000 nM and 158 nM, respectively.
As for `N=C(N)c1cc2ccc(F)cc2o1` [Example 6, 6-Fluorobenzofuran-2-carboxamidine], the Ki on 5-HT2A receptor is 2510 nM; at 5-HT2C receptor [1] it was 158 nM. For the same molecule, the ED50 at 5-HT2C receptor [2] worked out at 3 mg/kg.
As to `COCc1cccc2cc(C(=N)N)oc12` [CH2 --O-Me H H H H], the Ki on 5-HT2A receptor was 3160 nM; on 5-HT2C receptor [1], 158 nM.
On to `Cc1cccc2cc(C(=N)N)oc12` [Me H H H H], for which the Ki on 5-HT2A receptor is 2510 nM; on 5-HT2C receptor [1], 398 nM.
Turning to `N=C(N)c1cc2cccc(O)c2o1` [CH H H H H], the “Pki (Pki=-log10 Ki), 5-HT2A, Method b” value at 5-HT2A receptor is under 5. Also, the “Pki (Pki=-log10 Ki), 5-HT2C, Method a” value on 5-HT2C receptor [1] stood at 6.2.
Take `COc1ccc(C)c2cc(C(=N)N)oc12` [OMe H H Me H]: the Ki on 5-HT2A receptor was 2510 nM; on 5-HT2C receptor [1] it was 100 nM.
For `N=C(N)c1cc2cccc(-c3ccccc3)c2o1` [Ph H H H H] the same measures were 158 nM and 251 nM.
For `CCOc1cccc2cc(C(=N)N)oc12` [Example 4, 7-Ethoxybenzofuran-2-carboxamidine], the inhibition constant (Ki) is over 10000 nM at 5-HT2A receptor and 50.1 nM on 5-HT2C receptor [1].
For `N=C(N)c1cc2cccc(OC3CCCC3)c2o1` [O-Cyclo-pent H H H H] the same measures were 251 nM and 501 nM.
The corresponding values for `CC(C)COc1cccc2cc(C(=N)N)oc12` [Oi-Bu H H H H] are 1000 nM and 2000 nM.
For the molecule `N=C(N)c1cc2cc(Cl)cc(Cl)c2o1` [Cl H Cl H H], the inhibition constant (Ki) was 631 nM on 5-HT2A receptor and 2510 nM on 5-HT2C receptor [1].
For the molecule `CSc1cccc2cc(C(=N)N)oc12` [SMe H H H H], the Ki at 5-HT2A receptor is 1000 nM; on 5-HT2C receptor [1] it was 79.4 nM.
The corresponding values for `N=C(N)c1cc2cccc(F)c2o1` [F H H H H] are 5010 nM and 794 nM.
For `CCCc1cccc2cc(C(=N)N)oc12` [n-Pr H H H H] the same measures were 1000 nM and 79.4 nM.
The corresponding values for `COc1cccc2oc(C(=N)N)cc12` [H H H OMe H] are 2000 nM and 158 nM.
In the case of `COc1cccc2cc(C(=N)N)oc12` [Example 3, 7-Methoxybenzofuran-2-carboxamidine], the inhibition constant (Ki) on 5-HT2A receptor is over 10000 nM; at 5-HT2C receptor [1], 158 nM.
As to `COc1ccc2oc(C(=N)N)cc2c1` [H H OMe H H], the figures for the Ki at 5-HT2A receptor and on 5-HT2C receptor [1] were over 10000 nM and 2510 nM, respectively.
The corresponding values for `CCOc1cccc2oc(C(=N)N)cc12` [Example 2, 4-Ethoxybenzofuran-2-carboxamidine] are over 10000 nM and 158 nM.
For `CCCc1ccc(F)c2cc(C(=N)N)oc12` [Example 11] the same measures were 501 nM and 7.94 nM.
For the molecule `COc1cc(Br)cc2cc(C(=N)N)oc12` [OMe H Br H H], the Ki on 5-HT2A receptor was 2510 nM; at 5-HT2C receptor [1] it was 126 nM.

Broadly, the Ki is a dissociation constant, usually derived from enzyme kinetics or from competition with a known ligand.

For the origin of these results see patent US5955495A, “Method of treating diseases of the CNS” (Hoffmann-La Roche Inc., priority 1997, dated 1999).
